# Source: patent publication EP4667458A1 (Kanaph Therapeutics Inc., priority 2023, dated 2024)
# Target: T1, KRAS^G12C::SOS1 (Homo sapiens, UniProt Q07889)
# T1 sequence (Q07889 1-1333): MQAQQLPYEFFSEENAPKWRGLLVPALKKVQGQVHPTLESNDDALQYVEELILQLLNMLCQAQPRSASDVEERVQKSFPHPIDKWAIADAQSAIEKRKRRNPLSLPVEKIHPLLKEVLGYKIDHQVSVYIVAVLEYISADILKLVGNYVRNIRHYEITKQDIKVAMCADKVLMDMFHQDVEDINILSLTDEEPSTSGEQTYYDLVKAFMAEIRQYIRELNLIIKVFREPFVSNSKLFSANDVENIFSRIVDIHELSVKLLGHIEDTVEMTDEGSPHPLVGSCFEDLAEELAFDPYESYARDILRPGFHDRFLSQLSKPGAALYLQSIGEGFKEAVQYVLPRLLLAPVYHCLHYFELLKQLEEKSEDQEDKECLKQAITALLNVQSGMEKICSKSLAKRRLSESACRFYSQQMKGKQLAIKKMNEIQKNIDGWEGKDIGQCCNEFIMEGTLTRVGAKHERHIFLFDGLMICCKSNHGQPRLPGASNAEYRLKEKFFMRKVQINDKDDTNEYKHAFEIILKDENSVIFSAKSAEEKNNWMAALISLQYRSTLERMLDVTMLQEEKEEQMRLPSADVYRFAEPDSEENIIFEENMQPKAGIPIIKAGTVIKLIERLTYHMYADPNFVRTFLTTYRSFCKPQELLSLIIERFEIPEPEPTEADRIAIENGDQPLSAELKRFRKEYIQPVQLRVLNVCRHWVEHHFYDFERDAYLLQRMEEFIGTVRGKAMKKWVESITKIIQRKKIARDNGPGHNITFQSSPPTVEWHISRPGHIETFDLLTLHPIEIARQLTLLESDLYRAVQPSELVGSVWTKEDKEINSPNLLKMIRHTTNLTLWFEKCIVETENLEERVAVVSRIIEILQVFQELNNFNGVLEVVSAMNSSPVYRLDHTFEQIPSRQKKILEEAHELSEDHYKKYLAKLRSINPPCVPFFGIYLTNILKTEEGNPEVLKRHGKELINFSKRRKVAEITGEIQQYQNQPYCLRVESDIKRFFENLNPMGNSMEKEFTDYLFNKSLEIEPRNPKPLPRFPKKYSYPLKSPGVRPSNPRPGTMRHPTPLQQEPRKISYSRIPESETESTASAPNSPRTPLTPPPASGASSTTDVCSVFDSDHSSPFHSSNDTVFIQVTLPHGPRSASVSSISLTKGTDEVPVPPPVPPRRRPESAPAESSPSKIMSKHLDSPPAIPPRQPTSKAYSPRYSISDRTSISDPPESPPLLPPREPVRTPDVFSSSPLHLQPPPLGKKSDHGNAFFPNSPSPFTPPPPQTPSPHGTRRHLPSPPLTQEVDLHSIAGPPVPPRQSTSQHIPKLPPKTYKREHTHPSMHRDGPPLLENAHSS
# Experiment: KRAS G12C::SOS1 protein-protein interaction (PPI) inhibition assay (HTRF binding kit)
# Description: Protein-protein interaction between SOS1 and KRAS^G12C was detected using KRAS G12C/SOS1 binding kit from CISBIO (64KRASG12PEH, CISBIO, FRANCE) according to the manufacturer's assay method. Briefly, the maximum concentration of an inhibitor sample was set to be 3 µM, and the inhibitor sample was diluted 7 times by 1/3, and samples having a total of 8 concentrations were prepared. In HTRF (Homogeneous Time-Resolved Fluorescence) exclusive 96-well low-volume white plate (66PL96005, CISBIO, FRANCE), 2 µL of an inhibitor sample prepared for each concentration, 5 µL of a mixed solution of Tag1-labeled KRAS^G12C protein and GTP diluted with the dilution solution provided by the manufacturer, and 5 µL of Tag2 labeled SOS1 protein were mixed, and added with 8 µL of a diluted solution where anti-Tag1 KRAS^G12C XL665 (HTRF acceptor) labeled antibody and anti-Tag2 SOS1 Terbium cryptate (HTRF donor) labeled antibody were mixed in an equal ratio and incubated at room temperature for 2 h.
row,IC50 [nM],Structure (SMILES)
1,< 1000,"CNCc1ccc(F)cc1-c1ccc([C@@H](C)NC(=O)c2ccc(=O)n(-c3ccccc3F)n2)s1 [Example 286, N-[(1R)-1-[5-[5-fluoro-2-(methylaminomethyl)phenyl]-2-thienyl]ethyl]-1-(2-fluorophenyl)-6-oxo-pyridazine-3-carboxamide]"
2,< 1000,"C[C@@H](NC(=O)c1ccc(=O)n(-c2cccc(-c3ccno3)c2)n1)c1cc(N)cc(C(F)(F)F)c1 [Example 342, N-[(1R)-1-[3-amino-5-(trifluoromethyl)phenyl]ethyl]-1-(3-isoxazol-5-ylphenyl)-6-oxo-pyridazine-3-carboxamide]"
3,< 1000,"C[C@@H](NC(=O)c1ccc(=O)n(-c2cccc(-c3cnn(C)c3)c2)n1)c1cc(N)cc(C(F)(F)F)c1 [Example 334, N-[(1R)-1-[3-amino-5-(trifluoromethyl)phenyl]ethyl]-1-[3-(1-methylpyrazol-4-yl)phenyl]-6-oxo-pyridazine-3-carboxamide]"
4,< 1000,"C[C@@H](NC(=O)c1ccc(=O)n(-c2ccccc2F)c1)c1cccc(C(F)(F)CO)c1F [Example 181, N-[(1R)-1-[3-(1,1-difluoro-2-hydroxy-ethyl)-2-fluoro-phenyl]ethyl]-1-(2-fluorophenyl)-6-oxo-pyridine-3-carboxamide]"
5,< 1000,"CNCc1ccc(Cl)cc1-c1ccc([C@@H](C)NC(=O)c2ccc(=O)n(C3CCN(C(C)=O)CC3)n2)s1 [Example 301, 1-(1-acetyl-4-piperidyl)-N-[(1R)-1-[5-[5-chloro-2-(methylaminomethyl)phenyl]-2-thienyl]ethyl]-6-oxo-pyridazine-3-carboxamide]"
6,< 1000,"C[C@@H](NC(=O)c1ccc(=O)n(-c2cccc(-c3cnnn3C)c2)n1)c1cc(N)cc(C(F)(F)F)c1 [Example 369, N-[(1R)-1-[3-amino-5-(trifluoromethyl)phenyl]ethyl]-1-[3-(3-methyltriazol-4-yl)phenyl]-6-oxo-pyridazine-3-carboxamide]"
7,> 10000,"C[C@H](NC(=O)c1ccc(=O)n(-c2ccccc2F)n1)c1cc(N)cc(C(F)(F)F)n1 [Example 394, N-[(1S)-1-[4-amino-6-(trifluoromethyl)-2-pyridyl]ethyl]-1-(2-fluorophenyl)-6-oxo-pyridazine-3-carboxamide]"
8,< 1000,"C[C@@H](NC(=O)c1ccc(=O)n(-c2ccccc2F)n1)c1cc(N)cc(C(F)F)c1 [Example 375, N-[(1R)-1-[3-amino-5-(difluoromethyl)phenyl]ethyl]-1-(2-fluorophenyl)-6-oxo-pyridazine-3-carboxamide]"
9,< 1000,"C[C@@H](NC(=O)c1nn(-c2cnn(C)c2)c(=O)c2cc[nH]c12)c1cc(N)cc(C(F)(F)F)c1 [Example 307, N-[(1R)-1-[3-amino-5-(trifluoromethyl)phenyl]ethyl]-5-(1-methylpyrazol-4-yl)-4-oxo-1H-pyrrolo[2,3-d]pyridazine-7-carboxamide]"
10,< 1000,"CNCc1cc2c(cc1-c1ccc([C@@H](C)NC(=O)c3ccc(=O)n(-c4ccccc4F)n3)s1)CC2 [Example 266, 1-(2-fluorophenyl)-N-[(1R)-1-[5-[4-(methylaminomethyl)-3-bicyclo [4.2.0]octa-1,3,5-trienyl]-2-thienyl]ethyl]-6-oxo-pyridazine-3-carboxamide]"
11,< 1000,"C[C@@H](NC(=O)c1ccc(=O)n(-c2cccc(-c3ccn(C(F)F)n3)c2)n1)c1cccc(C(F)(F)CO)c1F [Example 345, N-[(1R)-1-[3-(1,1-difluoro-2-hydroxy-ethyl)-2-fluoro-phenyl]ethyl]-1-[3-[1-(difluoromethyl)pyrazol-3-yl]phenyl]-6-oxo-pyridazine-3-carboxamide]"
12,< 1000,"COc1cnccc1-n1nc(C(=O)N[C@H](C)c2cc(N)cc(C(F)(F)F)c2)ccc1=O [Example 145, N-[(1R)-1-[3-amino-5-(trifluoromethyl)phenyl]ethyl]-1-(3-methoxy-4-pyridyl)-6-oxo-pyridazine-3-carboxamide]"
